The results in this text go back to patent US7326721B2 (Hypnion, Inc., priority 2003, dated 2008).

The subject of data set [1] is Potassium Channel, Ca2+ Act., VI. Briefly: Table 12 panel: Potassium Channel, Ca2+ Act. Type of data set: binding. To be noted: 1.0E−6, average N=2. The source says: (§1) The percentage inhibition (average; N=2) for these receptors is shown below in Table 12.
(§2) Values in Table 12 are expressed as percentage inhibition of specific binding, and these values represent the average of replicate tubes at each of the concentrations tested.

The target of another data set is Bradykinin, BK2 (Homo sapiens, UniProt P30411). The data set can be described thus: Table 12 panel: Bradykinin, BK2. To be noted: 1.0E−6, average N=2, read-out: percentage inhibition of specific binding.
Excerpt: as §1, §2

The target of another data set is Endothelin, ET-A (h) (Homo sapiens, UniProt P25101). Briefly: Table 12 panel: Endothelin, ET-A. Particulars: 1.0E−6, average N=2, read-out: percentage inhibition of specific binding.
Excerpt: as §1, §2

Another data set concerns Dopamine, Non-selective. Briefly: Table 12 panel: Dopamine, Non-selective. Particulars: 1.0E−6, average N=2. Type of data set: binding.
Excerpt: as §1, §2

Another data set concerns the target Angiotensin II, AT1 (h) (Homo sapiens, UniProt P30556). Briefly: Table 12 panel: Angiotensin II, AT1. To be noted: 1.0E−6, average N=2, read-out: percentage inhibition of specific binding.
Excerpt: as §1, §2

Data set [2] has as its target Oxidase, MAO-A, Peripheral (Homo sapiens, UniProt P21397). The data set can be described thus: Table 12 panel: MAO-A. Particulars: 1.0E−6, average N=2. Type of data set: biochemical.
Excerpt: as §1, §2

A further data set concerns Sigma, Non-selective. The data set can be described thus: Table 12 panel: Sigma. Particulars: 1.0E−6, average N=2. Type of data set: binding.
Excerpt: as §1, §2

The subject of another data set is Galanin, Non-Selective. The data set can be described thus: Table 12 panel: Galanin. Type of data set: binding. Particulars: 1.0E−6, average N=2.
Excerpt: as §1, §2

The test system of data set [3] is T1, Adrenergic, Alpha 1, Non-selective.
T1 construct: other: Adrenergic, Alpha 1; 1.0E−6; average N=2
The data set can be described thus: Table 12 panel: Adrenergic, Alpha 1. Type of data set: binding. To be noted: Adrenergic, Alpha 1; 1.0E−6; average N=2.

The next data set concerns Sodium, Site 2. The data set can be described thus: Table 12 panel: Sodium, Site 2. Type of data set: binding. Particulars: 1.0E−6, average N=2.
Excerpt: as §1, §2

The test system of the next data set is Opioid, Non-selective. Briefly: Table 12 panel: Opioid. Type of data set: binding. Particulars: 1.0E−6, average N=2.
Excerpt: as §1, §2

Data set [4] has as its target Choline Acetyltransferase (Homo sapiens, UniProt P28329). Briefly: Table 12 panel: Choline Acetyltransferase. Type of data set: biochemical. To be noted: 1.0E−6, average N=2.
Excerpt: as §1, §2

A further data set concerns the target hERG (Homo sapiens, UniProt Q12809). The data set can be described thus: Table 12 panel: hERG binding. Set-up: expressed in transfected cells. Particulars: human recombinant hERG potassium channel (binding assay), I[Kr] (hERG) (hr), 1.0E−6, average N=2, read-out: percentage inhibition of specific binding.
Excerpt: as §1, §2
(In general: The hERG channel carries a current that helps repolarise heart muscle cells.)

Data set [5] addresses Norepinephrine Transporter (Homo sapiens, UniProt P23975). Briefly: Table 12 panel: Norepinephrine Transporter. Particulars: 1.0E−6, average N=2, read-out: percentage inhibition of specific binding.
Excerpt: as §1, §2

The target in a further data set is Neurokinin, NK1 (Homo sapiens, UniProt P25103). Briefly: Table 12 panel: NK1. Particulars: 1.0E−6, average N=2, read-out: percentage inhibition of specific binding.
Excerpt: as §1, §2

Another data set deals with Testosterone (cytosolic) (Homo sapiens, UniProt P10275). The data set can be described thus: Table 12 panel: Testosterone. Particulars: 1.0E−6, average N=2, read-out: percentage inhibition of specific binding.
Excerpt: as §1, §2

In data set [6] the target is Oxidase, MAO-B, Peripheral (Homo sapiens, UniProt P27338). Briefly: Table 12 panel: MAO-B. Type of data set: biochemical. To be noted: 1.0E−6, average N=2.
Excerpt: as §1, §2

Another data set deals with GABA-B (Homo sapiens, UniProt Q9UBS5). The data set can be described thus: Table 12 panel: GABA-B. To be noted: 1.0E−6, average N=2, read-out: percentage inhibition of specific binding.
Excerpt: as §1, §2

The target in another data set is T2, CYP 1A2 (Homo sapiens, UniProt P05177).
T2 construct: in a commercially available human microsomal preparation; purchased; host or cells: human microsomal preparation
The data set can be described thus: Cytochrome P450 inhibition, human microsomal preparation: CYP 1A2. Type of data set: in vitro ADME. How it is done:
(§3) Cytochrome P450 inhibition was studied with HY2901 in vitro. […] In addition, the in vitro rate of metabolism in rat, dog, monkey, and human hepatocyte cultures was determined for HY2901.

The nature of data set [7]: Urinary excretion in animal species. Type of data set: in vivo. Particulars: animal species administered HY2901.
A further data set has as its system CYP 3A. Briefly: Cytochrome P450 inhibition: CYP 3A. Type of data set: in vitro ADME. To be noted: human microsomal preparation. As for the experimental part: as §3
In another data set the target is T3, CYP 2D6 (Homo sapiens, UniProt P10635).
T3 construct: in a commercially available human microsomal preparation; purchased; host or cells: human microsomal preparation
Briefly: Cytochrome P450 inhibition: CYP 2D6. To be noted: human microsomal preparation. Type of data set: in vitro ADME. How it is done: as §3

Data set [8] in a line: Plasma pharmacokinetics in dogs. Particulars: dog, 3 mg/kg. Type of data set: in vivo. The source says: The following pharmacokinetic parameters are computed from the individual plasma concentrations of the modified antihistamine compound using a noncompartmental approach and appropriate validated pharmacokinetic software (e.g., WinNonlin Professional). Concentration values reported as BLQ are set to zero. If concentration data are available, interim calculations are done (non-QC.d data) between periods if possible.
Dose proportionality following study medication is explored by analyzing natural log-transformed pharmacokinetic variables AUC(0-t), AUC(0-inf), and Cmax with a linear model including the natural log-transformed dose as covariates. […] The following parameters were estimated: • Cmax Maximum plasma concentration. • Tmax Time to maximum concentration. • Cmax and Tmax were reported directly from the concentration-time data. • AUC0-T Area under the plasma concentration-time curve from time […] to the last time point with measurable concentrations, estimated bylinear trapezoidal rule. • AUC0-00 Area under the plasma concentration-time curve extrapolated to infinity, calculated using the formula: AUC0-00=AUC0-1+C0/λ0 • Where Ct is the last measurable concentration in plasma and λz is the terminal phase elimination rate constant estimated using log-linear regression during the terminal elimination phase. […]

Another data set has as its target T4, CYP 2C19 (Homo sapiens, UniProt P33261).
T4 construct: in a commercially available human microsomal preparation; purchased; host or cells: human microsomal preparation
Briefly: Cytochrome P450 inhibition: CYP 2C19. Type of data set: in vitro ADME. Particulars: human microsomal preparation. How it is done:
as §3

Molecules are shown by their SMILES.

Sequence of Norepinephrine Transporter (P23975 whole entry, species assumed): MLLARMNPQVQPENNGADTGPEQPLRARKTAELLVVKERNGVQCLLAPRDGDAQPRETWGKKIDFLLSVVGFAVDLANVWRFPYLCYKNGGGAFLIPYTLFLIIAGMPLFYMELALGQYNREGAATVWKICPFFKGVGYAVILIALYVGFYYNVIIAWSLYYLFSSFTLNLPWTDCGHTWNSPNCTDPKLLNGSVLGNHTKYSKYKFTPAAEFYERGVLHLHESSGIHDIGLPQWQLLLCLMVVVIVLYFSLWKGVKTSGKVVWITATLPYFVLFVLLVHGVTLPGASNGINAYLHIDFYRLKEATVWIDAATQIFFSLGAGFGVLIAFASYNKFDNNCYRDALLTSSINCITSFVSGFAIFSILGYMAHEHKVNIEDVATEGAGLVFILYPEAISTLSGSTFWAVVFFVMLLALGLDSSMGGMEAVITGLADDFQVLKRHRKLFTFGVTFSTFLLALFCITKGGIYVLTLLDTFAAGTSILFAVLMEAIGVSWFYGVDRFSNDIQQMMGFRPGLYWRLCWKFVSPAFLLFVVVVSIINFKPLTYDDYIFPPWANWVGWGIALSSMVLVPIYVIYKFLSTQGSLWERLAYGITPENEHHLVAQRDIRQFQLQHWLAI
Sequence of GABA-B (Q9UBS5 15-961 limits assumed): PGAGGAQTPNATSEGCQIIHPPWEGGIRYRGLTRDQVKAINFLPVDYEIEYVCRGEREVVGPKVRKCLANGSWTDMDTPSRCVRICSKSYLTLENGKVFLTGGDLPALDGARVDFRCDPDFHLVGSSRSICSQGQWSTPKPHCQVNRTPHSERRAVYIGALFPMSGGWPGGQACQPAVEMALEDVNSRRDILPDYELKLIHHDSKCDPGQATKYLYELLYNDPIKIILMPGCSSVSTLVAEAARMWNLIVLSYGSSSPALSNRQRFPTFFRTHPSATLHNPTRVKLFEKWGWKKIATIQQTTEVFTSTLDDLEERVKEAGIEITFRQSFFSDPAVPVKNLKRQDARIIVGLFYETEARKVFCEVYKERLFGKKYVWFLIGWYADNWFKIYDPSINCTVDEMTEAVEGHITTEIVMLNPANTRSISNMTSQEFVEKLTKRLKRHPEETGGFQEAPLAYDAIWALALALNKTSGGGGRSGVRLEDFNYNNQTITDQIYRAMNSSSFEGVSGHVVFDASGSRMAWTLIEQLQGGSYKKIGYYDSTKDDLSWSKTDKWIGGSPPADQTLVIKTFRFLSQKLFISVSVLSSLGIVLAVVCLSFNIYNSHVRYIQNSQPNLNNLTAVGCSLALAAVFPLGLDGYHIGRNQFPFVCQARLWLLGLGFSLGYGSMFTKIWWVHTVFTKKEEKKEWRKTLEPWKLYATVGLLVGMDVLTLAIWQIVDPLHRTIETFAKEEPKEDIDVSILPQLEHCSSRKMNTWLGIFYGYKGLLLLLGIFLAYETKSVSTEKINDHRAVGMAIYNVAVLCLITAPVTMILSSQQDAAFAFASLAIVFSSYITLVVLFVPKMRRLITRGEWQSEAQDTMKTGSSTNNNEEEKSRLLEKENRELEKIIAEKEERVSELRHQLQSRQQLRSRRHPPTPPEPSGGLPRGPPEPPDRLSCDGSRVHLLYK
Sequence of GABA-B (O75899 42-941 partner): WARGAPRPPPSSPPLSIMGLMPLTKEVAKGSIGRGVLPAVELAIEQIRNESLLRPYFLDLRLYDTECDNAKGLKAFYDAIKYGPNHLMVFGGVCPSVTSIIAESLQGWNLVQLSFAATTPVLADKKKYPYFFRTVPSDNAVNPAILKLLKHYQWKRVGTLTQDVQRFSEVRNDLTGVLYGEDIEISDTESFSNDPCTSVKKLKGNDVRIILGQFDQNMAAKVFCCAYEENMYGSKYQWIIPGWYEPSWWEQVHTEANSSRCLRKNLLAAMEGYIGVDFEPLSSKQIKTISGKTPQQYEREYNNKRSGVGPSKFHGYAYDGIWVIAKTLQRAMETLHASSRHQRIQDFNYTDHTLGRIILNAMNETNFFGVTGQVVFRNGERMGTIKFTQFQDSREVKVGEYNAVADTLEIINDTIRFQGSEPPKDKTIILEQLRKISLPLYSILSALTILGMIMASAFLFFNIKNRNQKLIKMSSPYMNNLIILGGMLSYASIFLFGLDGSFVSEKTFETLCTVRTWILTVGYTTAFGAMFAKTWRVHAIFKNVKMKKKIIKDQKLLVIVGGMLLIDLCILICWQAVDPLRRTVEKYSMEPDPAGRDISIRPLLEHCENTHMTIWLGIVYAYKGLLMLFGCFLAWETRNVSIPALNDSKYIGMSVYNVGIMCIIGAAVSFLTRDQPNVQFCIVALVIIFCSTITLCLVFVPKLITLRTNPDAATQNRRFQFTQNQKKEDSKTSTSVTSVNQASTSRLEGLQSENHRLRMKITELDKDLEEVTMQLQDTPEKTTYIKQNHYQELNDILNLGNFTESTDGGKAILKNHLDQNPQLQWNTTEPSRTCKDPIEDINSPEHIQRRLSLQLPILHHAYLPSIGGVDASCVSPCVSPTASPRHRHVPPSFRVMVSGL
Sequence of Angiotensin II, AT1 (h) (P30556 whole entry): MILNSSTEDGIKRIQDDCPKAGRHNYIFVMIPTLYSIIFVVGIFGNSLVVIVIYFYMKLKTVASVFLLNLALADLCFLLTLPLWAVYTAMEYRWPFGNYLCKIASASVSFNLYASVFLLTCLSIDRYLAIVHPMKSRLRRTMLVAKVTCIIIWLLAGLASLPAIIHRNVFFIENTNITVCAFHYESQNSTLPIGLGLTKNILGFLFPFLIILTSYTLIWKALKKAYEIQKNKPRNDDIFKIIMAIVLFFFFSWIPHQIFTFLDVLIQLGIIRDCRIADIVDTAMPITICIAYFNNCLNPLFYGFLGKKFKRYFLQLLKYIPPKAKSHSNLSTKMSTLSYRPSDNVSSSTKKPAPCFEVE
Sequence of Endothelin, ET-A (h) (P25101 21-427): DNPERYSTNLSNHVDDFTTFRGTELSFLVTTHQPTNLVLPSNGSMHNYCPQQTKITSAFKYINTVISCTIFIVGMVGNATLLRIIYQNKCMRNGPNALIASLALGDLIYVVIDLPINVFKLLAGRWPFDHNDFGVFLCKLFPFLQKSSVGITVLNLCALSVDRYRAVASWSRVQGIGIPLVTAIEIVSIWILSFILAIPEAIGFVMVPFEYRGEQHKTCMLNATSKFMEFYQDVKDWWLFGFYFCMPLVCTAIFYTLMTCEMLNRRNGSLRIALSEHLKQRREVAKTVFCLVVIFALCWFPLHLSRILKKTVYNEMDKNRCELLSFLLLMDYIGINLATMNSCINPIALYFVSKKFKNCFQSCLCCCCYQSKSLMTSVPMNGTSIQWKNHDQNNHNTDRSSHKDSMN
Sequence of Testosterone (cytosolic) (P10275 whole entry): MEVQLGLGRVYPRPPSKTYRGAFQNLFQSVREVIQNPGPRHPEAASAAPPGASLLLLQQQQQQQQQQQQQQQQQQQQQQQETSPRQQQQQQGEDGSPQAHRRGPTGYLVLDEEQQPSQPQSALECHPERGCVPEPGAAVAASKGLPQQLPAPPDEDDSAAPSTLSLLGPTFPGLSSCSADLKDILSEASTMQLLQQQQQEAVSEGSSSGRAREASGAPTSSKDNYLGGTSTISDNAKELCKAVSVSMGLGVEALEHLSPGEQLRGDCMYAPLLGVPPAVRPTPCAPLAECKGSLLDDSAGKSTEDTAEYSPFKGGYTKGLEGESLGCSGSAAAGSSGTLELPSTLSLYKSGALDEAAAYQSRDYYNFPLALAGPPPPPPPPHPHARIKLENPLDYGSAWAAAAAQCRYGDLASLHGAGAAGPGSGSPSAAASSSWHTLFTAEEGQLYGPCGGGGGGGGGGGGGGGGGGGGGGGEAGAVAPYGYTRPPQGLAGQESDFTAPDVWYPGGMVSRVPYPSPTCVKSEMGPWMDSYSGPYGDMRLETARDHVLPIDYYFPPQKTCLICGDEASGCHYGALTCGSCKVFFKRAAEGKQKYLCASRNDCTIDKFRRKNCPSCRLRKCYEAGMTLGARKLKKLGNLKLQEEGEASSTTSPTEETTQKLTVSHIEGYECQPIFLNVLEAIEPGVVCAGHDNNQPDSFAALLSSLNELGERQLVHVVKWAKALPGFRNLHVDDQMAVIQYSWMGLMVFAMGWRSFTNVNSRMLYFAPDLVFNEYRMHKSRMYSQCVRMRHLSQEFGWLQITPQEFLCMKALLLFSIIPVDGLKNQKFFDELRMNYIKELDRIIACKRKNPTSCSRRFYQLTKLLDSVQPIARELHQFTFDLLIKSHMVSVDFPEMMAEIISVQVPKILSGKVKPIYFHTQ
Sequence of Neurokinin, NK1 (P25103 whole entry): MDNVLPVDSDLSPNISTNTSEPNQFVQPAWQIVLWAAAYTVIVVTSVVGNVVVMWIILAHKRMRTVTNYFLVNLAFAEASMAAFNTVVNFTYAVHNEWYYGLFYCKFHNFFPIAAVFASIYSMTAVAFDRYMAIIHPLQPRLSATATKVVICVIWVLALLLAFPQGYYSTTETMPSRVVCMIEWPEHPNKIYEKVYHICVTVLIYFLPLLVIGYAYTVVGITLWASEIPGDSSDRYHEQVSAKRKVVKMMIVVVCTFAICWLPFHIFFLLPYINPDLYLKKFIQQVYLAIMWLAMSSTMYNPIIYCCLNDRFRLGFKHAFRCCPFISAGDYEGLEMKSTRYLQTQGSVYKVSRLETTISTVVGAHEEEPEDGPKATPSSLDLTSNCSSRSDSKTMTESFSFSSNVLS
Sequence of Bradykinin, BK2 (P30411 whole entry): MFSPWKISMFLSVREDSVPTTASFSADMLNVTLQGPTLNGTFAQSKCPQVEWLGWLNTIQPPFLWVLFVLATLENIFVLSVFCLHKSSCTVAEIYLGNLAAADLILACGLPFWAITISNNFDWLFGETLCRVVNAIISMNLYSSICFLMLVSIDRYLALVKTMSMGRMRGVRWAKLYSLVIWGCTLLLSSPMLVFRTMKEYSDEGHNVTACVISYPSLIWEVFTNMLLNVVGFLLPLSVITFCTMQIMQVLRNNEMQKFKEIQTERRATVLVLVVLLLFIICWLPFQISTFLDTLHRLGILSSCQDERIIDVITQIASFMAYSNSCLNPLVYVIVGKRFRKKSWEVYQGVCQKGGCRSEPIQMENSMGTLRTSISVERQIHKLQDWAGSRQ

For the molecule `CC(CC(=O)O)N1CCC(=C2c3ccc(F)cc3COc3ccccc32)CC1` (stereo not shown) [Compound 37], the “percentage inhibition of specific binding” value in data set [1] is reported as −12.71% ^; in the data set with Dopamine, Non-selective it was 21.10%; with Sigma, Non-selective, 13.27%; in the data set on Galanin, Non-Selective, −5.07%; in data set [3], 6.56%; in the data set on Sodium, Site 2, −4.12%. Besides, in the data set with Opioid, Non-selective, the “percentage inhibition of specific binding” value was −9.30%. Moreover, the inhibition at 1 µM on Bradykinin, BK2 is -3.04%; on Endothelin, ET-A (h), 10.2%; at Angiotensin II, AT1 (h) it was 12%; on hERG, -5.23%; in [5], 19.5%; on Neurokinin, NK1, 10.3%. Further, the figures for the inhibition at 1 µM on Testosterone (cytosolic) and at GABA-B were 0.24% and 2.17%, respectively. For the same molecule, the figures for the percentage inhibition in data set [2], in data set [4] and in data set [6] were −17.23% ^, 6.51% and 4.24%, respectively.

For `CC(C)(CN1CCC(=C2c3ccc(F)cc3COc3ccccc32)CC1)C(=O)O` [Compound 49a], the “inhibition of CYP 1A2 activity” value against CYP 1A2 was “did not inhibit”. Moreover, in data set [7], the “unchanged drug and metabolites in urine” value is on record as “has been found in the urine”. Moreover, the “inhibition of CYP 3A activity” value with CYP 3A is listed as “did not inhibit”. The “inhibition of CYP 2D6 activity” value at CYP 2D6 is on record as “did not inhibit”. This molecule showed a half-life in data set [8] of 4.2 h. Further, the time to peak (Tmax) in [8] (after oral administration) turned out to be 0.5 h. For the same molecule, at CYP 2C19, the “inhibition of CYP 2C19 activity” value is recorded as “did not inhibit”.

By inhibition is commonly meant the relative decrease from the control value, in per cent. What is called half-life is how long it takes for the measured level to halve. Broadly, the Tmax is the time from dosing to the highest level.
